According to PubChem BioAssay AID686942 (Broad Institute, 2013):

Test system: V. cholerae SLS353 luxOD47E qrr4-GFP fluorescence
Experiment: LuxO quorum inhibitors, qrr4 GFP fluorescence in V. cholerae SLS353 luxOD47E, dose response confirmation (AID 686942)

Row | SMILES | AC50 [nM]
1 | COc1ccc2cc3c(NC(=O)c4ccco4)nn(C)c3nc2c1 | 2000
2 | O=C(Nc1nnc(-c2ccc3c(c2)OCCO3)o1)C1CCCCC1 | 2000
3 | Cn1nc(NC(=O)c2ccco2)c2cc3ccccc3nc21 | 2000
